In the data set the test system is iPSC-derived neurons. Kind of data set: Mitochondrial motility and clearance in axons of iPSC-derived neurons, live imaging. Type of data set: cell-based, human. As to conditions: 5 μM for 24 hrs. How it is done:
FIG. 3A-FIG. 3D. Miro1 Reducer Rescues Parkinson's Neurodegeneration. (FIG. 3A) Fibroblasts were treated, lysed, and blotted as indicated. Band intensities are normalized to those of ATP5β from the same blots and compared to “Healthy-2, no treatment”. n=4. (FIG. 3B-FIG. 3C) iPSC-derived neurons were treated as indicated and immunostained with anti-TH (FIG. 3B) or stained with PI and Dapi (FIG. 3C). Both Antimycin A and Miro1 Reducer were dissolved in ethanol. Neurons were pretreated with Miro1 Reducer 24 hrs before the application of Antimycin A for another 6 hrs. The same volume of ethanol was applied at the same time in negative controls. (FIG. 3B) The density of TH-positive neurons is calculated in each condition under 20×, from 10 fields each experiment, 3-4 experiments. […] (FIG. 3C) The percentage of PI-positive cells out of total cells (Dapi-positive) is calculated. n=20 fields each experiment, 4 experiments. […] Graphs of Mean±S.E.M show the percent of time each mitochondrion is in motion (red and blue, compared to “Wild-type-I, before treatment”), and the mitochondrial intensity normalized to that of the same axonal region at “0 min” and expressed as a fraction of the mean of “Wild-type-I, 0 min”. n=33-77 mitochondria from 5-8 axons from 5-8 separate transfections. […]
Live Image Acquisition and Quantification. […]

Turning to `O=C(Nc1ccc(Nc2cc(-n3ccnc3)ncn2)cc1)Nc1cccc(F)c1` [Miro1 Reducer], the “basal motility of polarized, healthy mitochondria” value is given as “did not affect”. Besides, the “delayed arrest and clearance of depolarized mitochondria” value (then 100 μM Antimycin A, PD patient neurons) is “rescued the delayed arrest and clearance of depolarized mitochondria”.
